In US20240158446A1, “CYCLIC COMPOUND HAVING SELECTIVE INHIBITORY ACTION ON KRAS OVER HRAS AND NRAS” (CHUGAI SEIYAKU KABUSHIKI KAISHA, priority 2021, published 2024):
Where two headings read alike, the source gives them in different places. Where a SMILES comes first, the peptide text is derived from it. Bridges are numbered along the chain shown (N, C = ends). [ ]: non-standard residue; d: D form. The star is where a group is joined. ξ: configuration not given here. hPhe(3-Cl-4-CF3) = N[C@@H](CCc1ccc(C(F)(F)F)c(Cl)c1)C(=O)O; NPrPhe(4-CF3) = CCCN[C@@H](Cc1ccc(C(F)(F)F)cc1)C(=O)O; NPrPhe(4-Me) = CCCN[C@@H](Cc1ccc(C)cc1)C(=O)O; NEtPhe(4-Me) = CCN[C@@H](Cc1ccc(C)cc1)C(=O)O; NMeGly(cPent) = CN[C@H](C(=O)O)C1CCCC1; NMeD = CN[C@@H](CC(=O)O)C(=O)O; NMeL = CN[C@@H](CC(C)C)C(=O)O; NMeV = CN[C@H](C(=O)O)C(C)C; ξNMeD = CNC(CC(=O)O)C(=O)O; Pip = O=C(O)[C@@H]1CCCCN1; Morpholide = C1CN(*)CCO1; Piperidide = C1CCN(*)CC1; Ac5c = NC1(C(=O)O)CCCC1; Aze = O=C(O)[C@@H]1CCN1; ξP = O=C(O)C1CCCN1; Sar = CNCC(=O)O

Columns and labels:
[1] = target: GDP-bound NRAS wild-type protein (Homo sapiens, UniProt P01111); assay: Binding to NRAS by surface plasmon resonance (SPR), Single Cycle Kinetics; conditions: for NRAS/KRAS (ratio of KD value for NRAS to KD value for KRAS): SPR, GDP-bound NRAS wild-type protein vs GDP-bound KRAS wild-type protein
GDP-bound NRAS wild-type protein, sequence (P01111 whole entry): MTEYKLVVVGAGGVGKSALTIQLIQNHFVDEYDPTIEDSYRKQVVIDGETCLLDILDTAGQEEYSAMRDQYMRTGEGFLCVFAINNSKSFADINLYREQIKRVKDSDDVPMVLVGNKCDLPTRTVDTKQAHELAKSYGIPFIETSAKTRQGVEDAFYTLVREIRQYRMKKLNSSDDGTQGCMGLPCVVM

[2] = target: GDP-bound HRAS wild-type protein (Homo sapiens, UniProt P01112); assay: Binding to HRAS by surface plasmon resonance (SPR), Single Cycle Kinetics; conditions: for HRAS/KRAS (ratio of KD value for HRAS to KD value for KRAS): SPR, GDP-bound HRAS wild-type protein vs GDP-bound KRAS wild-type protein
GDP-bound HRAS wild-type protein, sequence (P01112 whole entry): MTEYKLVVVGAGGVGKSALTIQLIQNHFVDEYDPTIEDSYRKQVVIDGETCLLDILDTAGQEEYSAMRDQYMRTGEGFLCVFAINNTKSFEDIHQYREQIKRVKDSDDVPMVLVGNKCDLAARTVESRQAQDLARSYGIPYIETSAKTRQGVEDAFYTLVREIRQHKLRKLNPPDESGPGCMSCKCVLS

[3] = tested on: human lung cancer strain NCI-H441;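 also: cell proliferation inhibition after four days measured by CellTiter-Glo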
[4] = read-out: NCI-H441 IC50, NCI-H441 cells, four days, CellTiter-Glo
[5] = read-out: NCI-H441 IC50, NCI-H441 cell proliferation, 4 days, CellTiter-Glo
[6] = read-out: NCI-H441 cell proliferation inhibitory activity, 50% proliferation inhibitory concentration (IC50 value), NCI-H441, four days, CellTiter-Glo

CCC[C@H]1C(=O)N[C@H]([C@@H](C)CC)C(=O)N(C)CC(=O)N(C)[C@H]2C/C=C\CCN(C2=O)[C@@H](Cc2ccc(C)cc2)C(=O)N(C)CC(=O)N[C@@H](CCc2cc(F)c(C(F)F)c(F)c2)C(=O)N2C[C@H](OCC)C[C@H]2C(=O)NC2(CC(C)(C)C2)C(=O)N(C)[C@@H](C(CC)CC)C(=O)N(C)[C@H](C(=O)N(C)C)CC(=O)N1C (stereo in doubt) [PP2783]
NRAS/KRAS (ratio of KD value with respect to GDP-bound NRAS wild-type protein to KD value with respect to KRAS) ([1]; SPR KD ratio NRAS/KRAS, class symbols): A (a compound having 10 or more and less than 20 is denoted as A)
HRAS/KRAS (ratio of KD value with respect to GDP-bound HRAS wild-type protein to KD value with respect to KRAS) ([2]; SPR KD ratio HRAS/KRAS, class symbols): A (a compound having 10 or more and less than 20 is denoted as A)
IC50 [3]: 33.9 nM

CC[C@H](C)[C@@H]1NC(=O)[C@H](CC(C)C)N(C)C(=O)C[C@@H](C(=O)N2CCOCC2)N(C)C(=O)[C@H](C(C)C)N(C)C(=O)C2(CCCC2)NC(=O)[C@@H]2CCCN2C(=O)[C@H](CCc2ccc(C(F)(F)F)c(Cl)c2)NC(=O)CN(C)C(=O)[C@H](Cc2ccc(C)cc2)N(CC)C(=O)CN(C)C(=O)CN(C)C1=O [PP0044] ([NMeL]I[Sar][Sar][NEtPhe(4-Me)][Sar][hPhe(3-Cl-4-CF3)]P[Ac5c][NMeV][NMeD]-Morpholide; lactam N-11)
NRAS/KRAS (ratio of KD value for NRAS to KD value for KRAS) [1]: C (A compound having a KD ratio of 0.1 or more and less than 3 is denoted as C)
HRAS/KRAS (ratio of KD value for HRAS to KD value for KRAS) [2]: C (A compound having a KD ratio of 0.1 or more and less than 3 is denoted as C)
IC50 [3]: 142 nM

CCCN1C(=O)[C@@H]2CCN2C(=O)[C@@H]2CCCCN2C(=O)[C@H]([C@@H](C)CC)NC(=O)[C@H](CC(C)C)N(C)C(=O)C[C@@H](C(=O)N2CCOCC2)N(C)C(=O)[C@H](C2CCCC2)N(C)C(=O)C2(CCCC2)NC(=O)[C@@H]2CCCN2C(=O)[C@H](CCc2ccc(C(F)(F)F)c(Cl)c2)NC(=O)CN(C)C(=O)[C@@H]1Cc1ccc(C)cc1 [PP0070] ([NMeL]I[Pip][Aze][NPrPhe(4-Me)][Sar][hPhe(3-Cl-4-CF3)]P[Ac5c][NMeGly(cPent)][NMeD]-Morpholide; lactam N-11)
NRAS/KRAS (ratio of KD value for NRAS to KD value for KRAS) [1]: C (A compound having a KD ratio of 0.1 or more and less than 3 is denoted as C)
HRAS/KRAS (ratio of KD value for HRAS to KD value for KRAS) [2]: B (a compound having 3 or more and less than 10 is denoted as B)
IC50 [3]: 2.1 nM

CCCN1C(=O)CN(C)C(=O)CN(C)C(=O)[C@H]([C@@H](C)CC)NC(=O)[C@H](CC(C)C)N(C)C(=O)CC(C(=O)N2CCOCC2)N(C)C(=O)[C@H](C2CCCC2)N(C)C(=O)C2(CCCC2)NC(=O)[C@@H]2CCCN2C(=O)[C@H](CCc2ccc(C(F)(F)F)c(Cl)c2)NC(=O)C2CCCN2C(=O)[C@@H]1Cc1ccc(C(F)(F)F)cc1 (some centres unmarked) [PP0149] ([NMeL]I[Sar][Sar][NPrPhe(4-CF3)][ξP][hPhe(3-Cl-4-CF3)]P[Ac5c][NMeGly(cPent)][ξNMeD]-Morpholide; lactam N-11)
IC50 [3]: 317 nM

CCCN1C(=O)CN(C)C(=O)CN(C)C(=O)[C@H]([C@@H](C)CC)NC(=O)[C@H](CC(C)C)N(C)C(=O)C[C@@H](C(=O)N2CCCCC2)N(C)C(=O)[C@H](C2CCCC2)N(C)C(=O)C2(CCCC2)NC(=O)[C@@H]2CCCN2C(=O)[C@H](CCc2ccc(C(F)(F)F)c(Cl)c2)NC(=O)CN(C)C(=O)[C@@H]1Cc1ccc(C(F)(F)F)cc1 [PP0171] ([NMeL]I[Sar][Sar][NPrPhe(4-CF3)][Sar][hPhe(3-Cl-4-CF3)]P[Ac5c][NMeGly(cPent)][NMeD]-Piperidide; lactam N-11)
IC50 [3, 4]: 6.9 nM

CCOC1CC2C(=O)NC3(CCC3)C(=O)N(C)C(C(C)CC)C(=O)N(C)[C@H](C(=O)N3CCOCC3)CC(=O)N(C)[C@@H](CC(C)C)C(=O)N[C@@H]([C@@H](C)CC)C(=O)N(C)CC(=O)N(C)[C@H]3CCCCN(C3=O)[C@@H](Cc3ccc(C(F)(F)F)cc3)C(=O)N(C)CC(=O)N[C@@H](CCc3cc(F)c(C(F)(F)F)c(F)c3)C(=O)N2C1 (some centres unmarked) [PP0812]
IC50 [3]: 17.9 nM

CC[C@H](C)[C@@H]1NC(=O)[C@H](CC(C)C)N(C)C(=O)C[C@@H](C(=O)N(C)C)N(CCC2CCCC2)C(=O)[C@H](C2CCCC2)N(C)C(=O)C2(CCCC2)NC(=O)[C@@H]2CCCN2C(=O)[C@H](CCc2ccc(C(F)(F)F)c(Cl)c2)NC(=O)CN(C)C(=O)[C@H](Cc2ccc(F)cc2)N2CCCCC[C@@H](C2=O)N(C)C(=O)CN(C)C1=O [PP0975]
IC50 [3]: 1570 nM

CCO[C@@H]1C[C@H]2C(=O)NC3(CC(C)(C)C3)C(=O)N(C)[C@@H](C(CC)CC)C(=O)N(C)C(CC)CC(=O)N(C)[C@@H](CC)C(=O)N[C@@H]([C@@H](C)CC)C(=O)N(C)CC(=O)N(C)[C@H]3C/C=C\CCN(C3=O)[C@@H](Cc3ccc(C(F)(F)F)cc3)C(=O)N(C)CC(=O)N[C@@H](CCc3cc(F)c(C(F)(F)F)c(F)c3)C(=O)N2C1 (some centres unmarked) [PP1622]
IC50 [3, 5]: 28.1 nM

CCO[C@@H]1C[C@H]2C(=O)NC3(CCC3)C(=O)N(C)[C@@H](C3CCCC3)C(=O)N(C)[C@H](CC)CC(=O)N(C)[C@@H](CC3CC3)C(=O)N[C@@H]([C@@H](C)CC)C(=O)N(C)CC(=O)N(C)[C@H]3C/C=C\CCN(C3=O)C(Cc3ccc(C(F)(F)F)cc3)C(=O)N(C)CC(=O)N[C@@H](CCc3cc(F)c(C(F)(F)F)c(F)c3)C(=O)N2C1 (some centres unmarked) [PP1631]
IC50 [3, 5]: 17.6 nM

CCCOC[C@H]1C(=O)N[C@@H]([C@@H](C)OCC)C(=O)N(C)CC(=O)N(C)[C@H]2C/C=C\CCN(C2=O)[C@@H](Cc2ccc(C)cc2)C(=O)N(C)CC(=O)N[C@@H](CCc2ccc(C(F)(F)F)c(OC)c2)C(=O)N2C[C@@H](C)C[C@H]2C(=O)NC2(CC(C)(C)C2)C(=O)N(C)[C@@H](C2CCCC2)C(=O)N(C)[C@H](C(=O)N(C)CC)CC(=O)N1C [PP2423]
IC50 [3]: 71.9 nM

CC[C@H](C)[C@@H]1NC(=O)[C@H](COC)N(C)C(=O)C[C@@H](C(=O)N(C)C)N(C)C(=O)[C@H](C2CCCC2)N(C)C(=O)C2(CC(C)(C)C2)NC(=O)[C@@H]2C[C@@H](OC3CCCC3)CN2C(=O)[C@H](CCc2cc(F)c(C(F)(F)F)c(F)c2)NC(=O)CN(C)C(=O)[C@H](Cc2ccc(C)cc2)N2CC/C=C\C[C@@H](C2=O)N(C)C(=O)CN(C2CC2)C1=O [PP2626]
IC50 [3]: 33.4 nM

CCO[C@@H]1C[C@H]2C(=O)NC3(CC(C)(C)C3)C(=O)N(C)[C@@H](C3CCCC3)C(=O)N(C)[C@H](C(=O)N(C)C)CC(=O)N(C)[C@@H](CC(C)C)C(=O)N[C@@H]([C@@H](C)CC)C(=O)N(C)CC(=O)N(C)[C@H]3C/C=C\CCN(C3=O)[C@@H](Cc3ccc(CC)cc3)C(=O)N(C)CC(=O)N[C@@H](CCc3ccc(C(F)(F)F)c(OC)c3)C(=O)N2C1 [PP2687, (2S,8S,12R,14S,20S,23S,27S,30S,36S,38Z)-20-cyclopentyl-12-ethoxy-2-[(4-ethylphenyl)methyl]-27-isobutyl-8-[2-[3-methoxy-4-(trifluoromethyl)phenyl]ethyl]-N,N,3′,3′,4,19,22,26,32,35-decamethyl-30-[(1S)-1-methylpropyl]-3,6,9,15,18,21,25,28,31,34,42-undecaoxo-spiro[1,4,7,10,16,19,22,26,29,32,35-undecazatricyclo[34.5.1.0^10,14]dotetracont-38-ene-17,1′-cyclobutane]-23-carboxamide]
IC50 [3]: 2.9 nM

CCO[C@@H]1C[C@H]2C(=O)NC3(CC(C)(C)C3)C(=O)N(C)[C@@H](C(CC)CC)C(=O)N(C)[C@H](C(=O)N3CCCCC3)CC(=O)N(C)[C@H]3CCC/C=C/c4ccc(cc4)C[C@@H](C(=O)N(C)CC(=O)N[C@@H](CCc4ccc(Cl)c(Cl)c4)C(=O)N2C1)N1CC/C=C\C[C@@H](C1=O)N(C)C(=O)CN(C)C(=O)[C@H]([C@@H](C)CC)NC3=O [PP2953]
IC50 [3, 4]: 33.4 nM

CCO[C@@H]1C[C@H]2C(=O)NC3(CCC3)C(=O)N(C)[C@@H](C3CCCC3)C(=O)N(C)[C@H](C(=O)N3CCCCC3)CC(=O)N(C)[C@H]3CCC/C=C/c4ccc(cc4)C[C@@H](C(=O)N(C)CC(=O)N[C@@H](CCc4ccc(Cl)c(Cl)c4)C(=O)N2C1)N1CC/C=C\C[C@@H](C1=O)N(C)C(=O)CN(C1CC1)C(=O)[C@H]([C@@H](C)CC)NC3=O [PP2958]
IC50 [3, 4]: 19.5 nM

CCO[C@@H]1C[C@H]2C(=O)NC3(CCC3)C(=O)N(C)[C@@H](C(CC)CC)C(=O)N(C)[C@H](C(=O)N3CCCCC3)CC(=O)N(C)[C@H]3CCC/C=C/c4ccc(cc4)C[C@@H](C(=O)N(C)CC(=O)N[C@@H](CCc4ccc(Cl)c(Cl)c4)C(=O)N2C1)N1CC/C=C\C[C@@H](C1=O)N(C)C(=O)CN(C1CC1)C(=O)[C@H]([C@@H](C)CC)NC3=O [PP3039]
IC50 [3, 4]: 18 nM

CCCO[C@@H]1C[C@H]2C(=O)NC3(CC(C)(C)C3)C(=O)N(C)[C@@H](C3CCCC3)C(=O)N(C)[C@H](C(=O)N(C)C)CC(=O)N(C)[C@H]3CCCCc4ccc(cc4)C[C@@H](C(=O)N(C)CC(=O)N[C@@H](CCc4ccc(C(F)(F)F)c(OC)c4)C(=O)N2C1)N1CC/C=C\C[C@@H](C1=O)N(C)C(=O)CN(C1CC1)C(=O)[C@H]([C@@H](C)CC)NC3=O [PP3082]
IC50 [3, 6]: 1.7 nM

CCC[C@H]1C(=O)N[C@@H]([C@@H](C)CC)C(=O)N(C2CC2)CC(=O)N(C)[C@H]2C/C=C\CCN(C2=O)[C@@H](Cc2ccc(C)cc2)C(=O)N(C)CC(=O)N[C@@H](CCc2ccc(C(F)(F)F)c(OC)c2)C(=O)N2C[C@H](OCC)C[C@H]2C(=O)N(C)C2(CCC2)C(=O)N(C)[C@@H](C2CCCC2)C(=O)N(C)[C@H](C(=O)N2CCCCC2)CC(=O)N1C [PP3096, (2S,8S,12R,14S,20S,23S,27S,30S,36S,38Z)-20-cyclopentyl-32-cyclopropyl-12-ethoxy-8-[2-[3-methoxy-4-(trifluoromethyl)phenyl]ethyl]-4,16,19,22,26,35-hexamethyl-30-[(1S)-1-methylpropyl]-23-(piperidine-1-carbonyl)-27-propyl-2-(p-tolylmethyl)spiro[1,4,7,10,16,19,2226293235-undecazatricyclo[34.5.1.0^10,14]dotetracont-38-ene-17,1′-cyclobutane]-3,6,9,15,18,21,25,28,31,34,42-undecone]
IC50 [3, 6]: 35.8 nM
